# From article PMC7802075 (ACS Infectious Diseases, 2020)
# Where a SMILES comes first, the peptide text is derived from it.
# Molecular target: T1, LmjIPCS (inositol phosphorylceramide synthase from L. major) (Leishmania major, UniProt E9AFX2)
# T1 sequence (E9AFX2 1-338): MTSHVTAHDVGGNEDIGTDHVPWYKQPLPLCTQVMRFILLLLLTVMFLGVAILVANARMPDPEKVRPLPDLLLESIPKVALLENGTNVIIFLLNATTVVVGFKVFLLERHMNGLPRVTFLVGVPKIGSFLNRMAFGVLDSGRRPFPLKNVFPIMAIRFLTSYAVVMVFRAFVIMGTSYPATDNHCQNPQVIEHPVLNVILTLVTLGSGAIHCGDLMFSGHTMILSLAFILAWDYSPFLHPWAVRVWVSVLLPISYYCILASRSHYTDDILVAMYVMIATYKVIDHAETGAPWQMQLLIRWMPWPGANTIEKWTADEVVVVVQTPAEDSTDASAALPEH
# Test: biochemical
# Type: biochemical
# Parameters: inhibition: dose or concentration left out as unconfirmed
# Details: not given
row,Structure (SMILES),20mM inhibition LmjIPCS
1,CO/N=C(\C(=O)N[C@@H]1C(=O)N2C(C(=O)O)=C(COC(C)=O)CS[C@H]12)c1csc(N)n1 [CEFOTAXIME],44%
2,CC[C@@H](CO)NC(=O)[C@@H]1C=C2c3cccc4[nH]cc(c34)C[C@H]2N(C)C1 [METHYLERGONOVINE],35%
3,CC(=O)N[C@@H](CS)C(=O)O [ACETYLCYSTEINE],53%
4,CC(C)=CC1C(C(=O)OCc2cccc(Oc3ccccc3)c2)C1(C)C (stereo not shown) [PHENOTHRIN],39%
5,O=C1C=CC(=O)c2c(O)cccc21 [JUGLONE],48%
6,CC[C@@]1(O)C[C@H](O[C@H]2C[C@H](N(C)C)[C@H](O)[C@H](C)O2)c2c(cc3c(c2O)C(=O)c2c(O)cccc2C3=O)[C@H]1C(=O)OC [AKLAVINE],59%
7,CN1CCN(C(c2ccccc2)c2ccccc2)CC1 [CYCLIZINE],58%
8,COc1cc2c(cc1OC)-c1cc3ccc(OC)c(OC)c3c[n+]1CC2 [PALMATINE],8%
9,O=C(O)C(O)C(O)C(=O)O.OCc1cccnc1 (stereo not shown) [NICOTINYL],6%
10,COc1ccccc1N1CCNCC1 [1- (2-METHOXYPHENYL)PIPERAZINE],30%
11,CC1=C(C(=O)O)N2C(=O)[C@@H](NC(=O)[C@H](N)c3ccc(O)cc3)[C@H]2SC1 [CEFADROXIL],37%

# Same assay, conditions: NINDS set screen, compound at 20mM (so in the source)
row,Structure (SMILES),20mM inhibition LmjIPCS
1,C[C@]12CCC(=O)C=C1CC[C@@H]1[C@@H]2[C@@H](O)C[C@@]2(C)[C@H]1CC[C@]2(O)C(=O)COC(=O)CCC(=O)O [HYDROCORTISONE HEMISUCCINATE],18%
2,N#Cc1c(Cl)c(Cl)c(Cl)c(C#N)c1Cl [TETRACHLOROISOPHTHALONITRILE],15%

# Same assay, conditions: NINDS set screen, single concentration printed as 20mM
row,Structure (SMILES),20mM inhibition LmjIPCS
1,C=C1c2c(Cl)ccc(O)c2C(=O)C2=C(O)[C@]3(O)C(=O)C(C(N)=O)=C(O)[C@@H](N(C)C)[C@@H]3[C@@H](O)[C@H]12 [MECLOCYCLINE],67%
2,CC[C@H]1CN2CC[C@H]1C[C@@H]2[C@@H](O)c1ccnc2ccc(OC)cc12 [HYDROQUINIDINE],58%
3,C[N+](C)(C)CCOC(N)=O [CARBACHOL],57%
4,O=C1C[C@@H](c2ccccc2)Oc2cc(O)cc(O)c21 [PINOCEMBRIN],35%
5,Nc1ccc(/N=N/c2ccccc2)c(N)n1 [PHENAZOPYRIDINE],52%

# Same assay, conditions: NINDS set screen; read-out: inhibition LmjIPCS
row,Structure (SMILES),inhibition
1,CN1CCN(CC/C=C2/c3ccccc3Sc3ccc(S(=O)(=O)N(C)C)cc32)CC1 [THIOTHIXENE],-24%
2,O=C(O)c1cn(-c2ccc(F)cc2)c2cc(N3CCNCC3)c(F)cc2c1=O [SARAFLOXACIN],18%
3,CO/N=C(\C(=O)N[C@@H]1C(=O)N2C(C(=O)O)=C(COC(N)=O)CS[C@H]12)c1ccco1 [CEFUROXIME],16%
4,O=C1c2ccc(O)c(O)c2C(=O)c2c(O)ccc(O)c21 [QUINALIZARIN],-2.7%
5,CC1=NCCc2c1[nH]c1cc(O)ccc21 [HARMALOL],17%

# Same assay, conditions: read-out: 20mM inhibition LmjIPCS
row,Structure (SMILES),inhibition at 20000 µM
1,Cc1ccc(S(=O)(=O)NC(=O)NN2CCCCCC2)cc1 [TOLAZAMIDE],-5%
2,CO[C@@]1(NC(=O)C(C(=O)O)c2ccc(O)cc2)C(=O)N2C(C(=O)O)=C(CSc3nnnn3C)CO[C@@H]21 (stereo partly shown) [MOXALACTAM],10%
3,Oc1cccc2cccnc12 [OXYQUINOLINE],14%
4,COc1ccc(C(C)=O)c(O)c1 [PAEONOL],9%
5,C=C(C)[C@@H]1CC[C@]2(C(=O)O)CC[C@]3(C)[C@H](CC[C@@H]4[C@@]5(C)CC[C@H](O)C(C)(C)[C@@H]5CC[C@]43C)[C@@H]12 [BETULINIC ACID],21%
6,CC(=O)[C@@]1(O)CC[C@H]2[C@@H]3C[C@H](C)C4=CC(=O)C=C[C@]4(C)[C@@]3(F)[C@@H](O)C[C@@]21C [FLUOROMETHOLONE],3%
7,Cc1onc(-c2ccccc2)c1C(=O)N[C@@H]1C(=O)N2[C@@H]1SC(C)(C)[C@@H]2C(=O)O [OXACILLIN],16%
8,CN[C@@H]1[C@@H](O[C@H]2O[C@H](CO)[C@@H](N)[C@H](O)[C@H]2O)OC2C[C@@H](N)[C@@H](O[C@H]3[C@H](O)[C@@H](O)[C@H](N)C[C@@H]3N)OC2[C@@H]1O (stereo partly shown) [APRAMYCIN],0.0509%
9,COc1ccc(-c2cc(C(F)F)nn2-c2ccc(S(N)(=O)=O)cc2)cc1F [DERACOXIB],28%
10,CC(C)=CCC1=C(O)C(=O)c2ccccc2C1=O [LAPACHOL],5.55%
11,CN1[C@@H]2CC[C@H]1C[C@@H](OC(=O)[C@H](CO)c1ccccc1)C2 [HYOSCYAMINE],4%
12,CC(C)c1c(C(=O)Nc2ccccc2)c(-c2ccccc2)c(-c2ccc(F)cc2)n1CC[C@@H](O)C[C@@H](O)CC(=O)O [ATORVASTATIN],9.48%
13,CC1(C)S[C@@H]2[C@H](NC(=O)COc3ccccc3)C(=O)N2[C@H]1C(=O)O [PENICILLIN V],3.31%
14,S=C=NCc1ccccc1 [BENZYL ISOTHIOCYANATE],6%
15,CN1CCCN=C1/C=C/c1cccs1,20%
16,CCOc1ccc2ccccc2c1C(=O)N[C@@H]1C(=O)N2[C@@H]1SC(C)(C)[C@@H]2C(=O)O [NAFCILLIN],4.73%
17,O=C(O)CN(CC(=O)O)Cc1cc2c(cc1O)Oc1cc(O)c(CN(CC(=O)O)CC(=O)O)cc1C21OC(=O)c2ccccc21 [CALCEIN],0%
18,CN(C)CCC=C1c2ccccc2C=Cc2ccccc21 [CYCLOBENZAPRINE],-2.37%
19,NC(Cc1cc(I)c(Oc2cc(I)c(O)c(I)c2)c(I)c1)C(=O)O (stereo not shown) [THYROXINE],12%
20,CC(=O)OCC(=O)[C@H]1CC[C@H]2[C@@H]3CCC4=CC(=O)CC[C@]4(C)[C@H]3CC[C@]12C [DESOXYCORTICOSTERONE ACETATE],17%
21,COc1ccc2c(c1)[nH]c1c(C)nccc12 [HARMINE],32%
22,CO[C@@]1(NC(=O)Cc2cccs2)C(=O)N2C(C(=O)O)=C(COC(N)=O)CS[C@@H]21 [CEFOXITIN],3.72%
23,C/C=C1\[C@H]2C=C(C)C[C@]1(N)c1ccc(=O)[nH]c1C2 [HUPERZINE A],24%
24,C[C@@H]1O[C@@H](O[C@H]2C[C@@H](O)[C@]3(CO)[C@H]4[C@H](O)C[C@]5(C)[C@@H](C6=CC(=O)OC6)CC[C@]5(O)[C@@H]4CC[C@]3(O)C2)[C@H](O)[C@H](O)[C@H]1O [OUABAIN],1.15%
25,Cc1cc(NC(=O)C2=C(O)c3ccccc3S(=O)(=O)N2C)no1 [ISOXICAM],-3%

# Same assay, conditions: read-out: inhibition LmjIPCS
row,Structure (SMILES),inhibition
1,CN1C[C@H](CNC(=O)OCc2ccccc2)C[C@@H]2c3cccc4c3c(cn4C)C[C@H]21 [METERGOLINE],11%
2,CC[C@@H](CO)NCCN[C@@H](CC)CO [ETHAMBUTOL],-1.19%
3,COc1cc(O)c2c(c1)C(=O)c1cc(C)cc(O)c1C2=O [PHYSCION],18%
4,CCCn1c(=O)c2[nH]c(C3CCCC3)nc2n(CCC)c1=O,2.66%
5,CC(=O)O[C@H]1C[C@@]2(C)[C@@H](C[C@@H](O)[C@H]3[C@@]4(C)CC[C@@H](O)[C@@H](C)[C@@H]4CC[C@@]32C)/C1=C(\CCC=C(C)C)C(=O)O [FUSIDIC ACID],5.47%
6,CC(C)=CCC/C(C)=C\CO [NEROL],33%
7,[H]/N=C(/N)N[C@H]1[C@H](O)[C@@H](O)[C@H](O[C@@H]2O[C@@H](C)[C@](O)(C=O)[C@H]2O[C@@H]2O[C@@H](CO)[C@H](O)[C@@H](O)[C@@H]2NC)[C@@H](N/C(N)=N\[H])[C@@H]1O [STREPTOMYCIN],-0.116%
8,Nc1ncnc2c1ncn2[C@@H]1O[C@H](CO)[C@@H](O)[C@@H]1O [VIDARABINE],10%
9,COC(=O)[C@H]1[C@H]2C[C@H]3c4[nH]c5ccccc5c4CCN3C[C@H]2CC[C@@H]1O [RAUWOLSCINE],12%
10,C[N+](C)(C)CC(O)CC(=O)[O-] (stereo not shown) [CARNITINE],15%
11,CCCCC1=NC2(CCCC2)C(=O)N1Cc1ccc(-c2ccccc2-c2nnn[nH]2)cc1 [IRBESARTAN],1%
12,CCN(CC)C(=O)N1CCN(C)CC1 [DIETHYLCARBAMAZINE],-3%
13,O=C1C[C@@H](c2ccc(O)cc2)Oc2cc(O)cc(O)c21 [NARINGENIN],17%
14,CCCCC1(COC(=O)CCC(=O)O)C(=O)N(c2ccccc2)N(c2ccccc2)C1=O [SUXIBUZONE],7%
15,CC(=O)O[C@H]1C(=O)[C@@]2(C)[C@H]([C@H](OC(=O)c3ccccc3)[C@]3(O)C[C@H](OC(=O)[C@H](O)[C@@H](NC(=O)c4ccccc4)c4ccccc4)C(C)=C1C3(C)C)[C@]1(OC(C)=O)CO[C@@H]1C[C@@H]2O [PACLITAXEL],0.0705%

# Same assay, conditions: screening of NINDS set, sheet Screen 1; read-out: inhibition LmjIPCS
row,Structure (SMILES),inhibition
1,Cc1c(Cl)cccc1Nc1ccccc1C(=O)O [TOLFENAMIC ACID],4.68%
2,CCCCCCOc1ccccc1C(N)=O [EXALAMIDE],8%
3,N[C@H](Cc1ccccc1)C(=O)O [D-PHENYLALANINE],9%
4,C=N[C@@H](C(=O)N[C@@H]1C(=O)N2[C@@H]1SC(C)(C)[C@@H]2C(=O)O)c1ccccc1 [METAMPICILLIN],10%
5,CC(C)[C@H](N)C(=O)N[C@@H](Cc1c[nH]c2ccccc12)C(=O)O [VALYLTRYPTOPHAN] (H-Val-Trp-OH),6%
6,CO/N=C(\C(=O)N[C@@H]1C(=O)N2C(C(=O)O)=C(CSc3nc(=O)c(=O)[nH]n3C)CS[C@H]12)c1csc(N)n1 [CEFTRIAXONE],5.34%

# Same assay, conditions: single concentration 20mM as printed; screening of NINDS set, sheet Screen 1
row,Structure (SMILES),20mM inhibition LmjIPCS
1,NC(Cc1ccc(Cl)cc1)C(=O)O (stereo not shown) [p-CHLOROPHENYLALANINE],4%
